System: MV-4-11 cells
Test: Gene expression microarray analysis (Affymetrix PrimeView) and GSEA
Format: cell-based, human
Design: RFU PODN (11730768_x_at) / Fold change /veh PODN (11730768_x_at) / RFU LINC00158 (11744669_a_at) / Fold change /veh LINC00158 (11744669_a_at) / RFU DUSP10 (11751237_a_at) / Fold change /veh DUSP10 (11751237_a_at) / RFU ID3 (11757404_x_at) / Fold change /veh ID3 (11757404_x_at) / RFU PLEKHG5 (11737974_s_at) / Fold change /veh PLEKHG5 (11737974_s_at) / RFU LRRC4B (11730491_at) / Fold change /veh LRRC4B (11730491_at) / RFU GIMAP4 (11747438_a_at) / Fold change /veh GIMAP4 (11747438_a_at) / RFU KRT8 (11758183_x_at) / Fold change /veh KRT8 (11758183_x_at) / RFU CNN1 (11734310_a_at) / Fold change /veh CNN1 (11734310_a_at) / RFU VPS37D (11726825_at) / Fold change /veh VPS37D (11726825_at) / RFU C10orf10 (11716522_x_at) / Fold change /veh C10orf10 (11716522_x_at) / RFU KIR2DL2 /// KIR2DL4 /// KIR2DL5A /// KIR2DL5B /// KIR2DS1 /// KIR2DS2 /// KIR2DS3 /// KIR2DS4 /// KIR3DL3 /// KIR3DL3 /// KIR3DS1 (11738374_at) / Fold change /veh KIR2DL2 /// KIR2DL4 /// KIR2DL5A /// KIR2DL5B /// KIR2DS1 /// KIR2DS2 /// KIR2DS3 /// KIR2DS4 /// KIR3DL3 /// KIR3DL3 /// KIR3DS1 (11738374_at) / RFU C1QL1 (11718748_at) / Fold change /veh C1QL1 (11718748_at) / RFU TMPRSS4 (11747572_a_at) / Fold change /veh TMPRSS4 (11747572_a_at) / RFU HAMP (11756126_x_at) / Fold change /veh HAMP (11756126_x_at) / RFU RNFT2 (11725882_a_at) / Fold change /veh RNFT2 (11725882_a_at) / RFU NR4A2 (11747474_a_at) / Fold change /veh NR4A2 (11747474_a_at) / RFU ABCC12 (11746883_a_at) / Fold change /veh ABCC12 (11746883_a_at) / RFU TMEM136 (11760407_x_at) / Fold change /veh TMEM136 (11760407_x_at) / RFU CLDN22 /// WWC2 (11732394_at) / Fold change /veh CLDN22 /// WWC2 (11732394_at) / RFU HLA-DPB1 (11760878_x_at) / Fold change /veh HLA-DPB1 (11760878_x_at) / RFU SPINT1 (11716480_a_at) / Fold change /veh SPINT1 (11716480_a_at) / RFU GAP43 (11754022_s_at) / Fold change /veh GAP43 (11754022_s_at) / RFU A4GNT (11735810_at) / Fold change /veh A4GNT (11735810_at) / RFU PRB3 (11715151_x_at) / Fold change /veh PRB3 (11715151_x_at) / RFU TUBB4B (11761932_at) / Fold change /veh TUBB4B (11761932_at) / RFU CAPN14 (11732068_a_at) / Fold change /veh CAPN14 (11732068_a_at) / RFU TMCC2 (11721928_a_at) / Fold change /veh TMCC2 (11721928_a_at) / RFU IRGQ (11745062_a_at) / Fold change /veh IRGQ (11745062_a_at) / RFU FAM174B (11720279_a_at) / Fold change /veh FAM174B (11720279_a_at) / RFU TMPRSS4 (11748680_a_at) / Fold change /veh TMPRSS4 (11748680_a_at) / RFU FAM212B (11763350_a_at) / Fold change /veh FAM212B (11763350_a_at) / RFU PLEKHG5 (11743358_a_at) / Fold change /veh PLEKHG5 (11743358_a_at) / RFU ZSCAN30 (11745921_a_at) / Fold change /veh ZSCAN30 (11745921_a_at) / RFU CMKLR1 (11741424_a_at) / Fold change /veh CMKLR1 (11741424_a_at) / RFU LOC101060620 /// MAPK8IP1 (11723275_at) / Fold change /veh LOC101060620 /// MAPK8IP1 (11723275_at) / RFU SPTSSB (11747773_x_at) / Fold change /veh SPTSSB (11747773_x_at) / RFU PRSS12 (11739890_at) / Fold change /veh PRSS12 (11739890_at) / RFU BIN1 (11741810_x_at) / Fold change /veh BIN1 (11741810_x_at) / RFU WNT11 (11732464_a_at) / Fold change /veh WNT11 (11732464_a_at) / RFU C10orf10 (11716521_a_at) / Fold change /veh C10orf10 (11716521_a_at) / RFU C5orf56 (11738089_at) / Fold change /veh C5orf56 (11738089_at) / RFU CYB561 (11721691_x_at) / Fold change /veh CYB561 (11721691_x_at) / RFU ANKRD19P (11752326_a_at) / Fold change /veh ANKRD19P (11752326_a_at) / RFU OR2T12 /// OR2T33 /// OR2T8 (11738714_s_at) / Fold change /veh OR2T12 /// OR2T33 /// OR2T8 (11738714_s_at) / RFU VCAN (11748164_a_at) / Fold change /veh VCAN (11748164_a_at) / RFU JSRP1 (11732532_at) / Fold change /veh JSRP1 (11732532_at) / RFU KRTAP10-11 (11738290_x_at) / Fold change /veh KRTAP10-11 (11738290_x_at) / RFU MYO3A (11730013_a_at) / Fold change /veh MYO3A (11730013_a_at) / RFU EBF3 (11725865_a_at) / Fold change /veh EBF3 (11725865_a_at) / RFU CAMK2N1 (11719241_x_at) / Fold change /veh CAMK2N1 (11719241_x_at) / RFU C5orf56 (11738088_a_at) / Fold change /veh C5orf56 (11738088_a_at) / RFU OLFML3 (11715873_a_at) / Fold change /veh OLFML3 (11715873_a_at) / RFU LOC100653217 /// NTM (11731650_a_at) / Fold change /veh LOC100653217 /// NTM (11731650_a_at) / RFU MAPK11 (11762145_a_at) / Fold change /veh MAPK11 (11762145_a_at) / RFU FIZ1 (11724087_x_at) / Fold change /veh FIZ1 (11724087_x_at) / RFU OASL (11726364_x_at) / Fold change /veh OASL (11726364_x_at) / RFU SOX15 (11748057_x_at) / Fold change /veh SOX15 (11748057_x_at) / RFU CD79A (11719716_a_at) / Fold change /veh CD79A (11719716_a_at) / RFU HIST1H1D (11736915_at) / Fold change /veh HIST1H1D (11736915_at) / RFU CASKIN2 (11723855_a_at) / Fold change /veh CASKIN2 (11723855_a_at) / RFU LOC730098 (11760151_x_at) / Fold change /veh LOC730098 (11760151_x_at) / RFU OR4N2 (11742367_at) / Fold change /veh OR4N2 (11742367_at) / RFU PRRT2 (11749266_a_at) / Fold change /veh PRRT2 (11749266_a_at) / RFU SNX32 (11753110_a_at) / Fold change /veh SNX32 (11753110_a_at) / RFU CDHR5 (11726645_a_at) / Fold change /veh CDHR5 (11726645_a_at) / RFU RCAN1 (11760418_a_at) / Fold change /veh RCAN1 (11760418_a_at) / RFU FAM167A (11723789_a_at) / Fold change /veh FAM167A (11723789_a_at) / RFU FAM26E (11764081_at) / Fold change /veh FAM26E (11764081_at) / RFU ISYNA1 (11749810_s_at) / Fold change /veh ISYNA1 (11749810_s_at) / RFU ACY1 (11761880_at) / Fold change /veh ACY1 (11761880_at) / RFU 11764098_at / Fold change /veh 11764098_at / RFU SAMD14 (11745864_x_at) / Fold change /veh SAMD14 (11745864_x_at) / RFU NPB (11741838_a_at) / Fold change /veh NPB (11741838_a_at) / RFU TMPRSS6 (11731388_a_at) / Fold change /veh TMPRSS6 (11731388_a_at) / RFU KRTAP10-2 (11738614_at) / Fold change /veh KRTAP10-2 (11738614_at) / RFU ARHGAP8 /// PRR5-ARHGAP8 (11727945_x_at) / Fold change /veh ARHGAP8 /// PRR5-ARHGAP8 (11727945_x_at) / RFU KRTAP5-7 /// NADSYN1 (11734609_at) / Fold change /veh KRTAP5-7 /// NADSYN1 (11734609_at) / RFU RASL12 (11751679_a_at) / Fold change /veh RASL12 (11751679_a_at) / RFU CDKN2B (11736163_a_at) / Fold change /veh CDKN2B (11736163_a_at) / RFU PRF1 (11729649_at) / Fold change /veh PRF1 (11729649_at) / RFU, ZNF638 /// ZNF638-IT1 / Fold change vs veh, ZNF638 /// ZNF638-IT1 / RFU, PANK3 / Fold change vs veh, PANK3 / RFU, SH3YL1 / Fold change vs veh, SH3YL1 / RFU, ZEB2 / Fold change vs veh, ZEB2 / RFU, NRIP1 / Fold change vs veh, NRIP1 / RFU, PTTG1IP / Fold change vs veh, PTTG1IP / RFU, CAPN2 / Fold change vs veh, CAPN2 / RFU, MED14 / Fold change vs veh, MED14 / RFU, SNORA58 / Fold change vs veh, SNORA58 / RFU, C1orf63 / Fold change vs veh, C1orf63 / RFU, LRRFIP1 / Fold change vs veh, LRRFIP1 / RFU, NDUFAF7 / Fold change vs veh, NDUFAF7 / RFU, SLC12A2 / Fold change vs veh, SLC12A2 / RFU, IBTK / Fold change vs veh, IBTK / RFU, ESF1 / Fold change vs veh, ESF1 / Fold change vs veh, TMEM50B / RFU, TAOK1 / Fold change vs veh, TAOK1 / RFU, ACBD3 / Fold change vs veh, ACBD3 / RFU, TMA16 / Fold change vs veh, TMA16 / RFU, RWDD3 / Fold change vs veh, RWDD3 / RFU, BCAT1 / Fold change vs veh, BCAT1 / RFU, EDEM3 / Fold change vs veh, EDEM3 / RFU, TMEM33 / Fold change vs veh, TMEM33 / RFU, WDR75 / Fold change vs veh, WDR75 / RFU, AHCTF1 / Fold change vs veh, AHCTF1 / RFU, TFRC / Fold change vs veh, TFRC / RFU, ZDHHC17 / Fold change vs veh, ZDHHC17 / RFU, NOM1 / Fold change vs veh, NOM1 / RFU, ARL8B / Fold change vs veh, ARL8B / RFU, ZBTB11 / Fold change vs veh, ZBTB11 / RFU, TAMM41 / Fold change vs veh, TAMM41 / RFU, KIAA1704 /// LOC100996395 / Fold change vs veh, KIAA1704 /// LOC100996395 / RFU, ING1 / Fold change vs veh, ING1 / RFU, TRMT61B / Fold change vs veh, TRMT61B / RFU, FUBP3 / Fold change vs veh, FUBP3 / RFU, TP53 / Fold change vs veh, TP53 / RFU, TNKS2 / Fold change vs veh, TNKS2 / RFU, ZFP14 / Fold change vs veh, ZFP14 / RFU, ACTR2 / Fold change vs veh, ACTR2 / RFU, PPP3R1 / Fold change vs veh, PPP3R1 / RFU, PIK3R1 / Fold change vs veh, PIK3R1 / RFU, HNRNPA1 / Fold change vs veh, HNRNPA1 / RFU, RNF170 / Fold change vs veh, RNF170 / RFU, ZNF28 / Fold change vs veh, ZNF28 / RFU, RNGTT / Fold change vs veh, RNGTT / RFU, OGT / Fold change vs veh, OGT / RFU, BRD1 / Fold change vs veh, BRD1 / RFU, MARS / Fold change vs veh, MARS / RFU, ZNF655 / Fold change vs veh, ZNF655 / RFU, FAHD1 / Fold change vs veh, FAHD1 / RFU, BDP1 / Fold change vs veh, BDP1 / RFU, LRRCC1 / Fold change vs veh, LRRCC1 / RFU, ARID1A / Fold change vs veh, ARID1A / RFU, ZNF146 / Fold change vs veh, ZNF146 / RFU, ZNF330 / Fold change vs veh, ZNF330 / RFU, GPN3 / Fold change vs veh, GPN3 / RFU, C9orf123 / Fold change vs veh, C9orf123 / RFU, N4BP2L2 / Fold change vs veh, N4BP2L2 / RFU, ARFIP1 / Fold change vs veh, ARFIP1 / RFU, FAM179B / Fold change vs veh, FAM179B / RFU, BCL10 / Fold change vs veh, BCL10 / RFU, UHRF1BP1L / Fold change vs veh, UHRF1BP1L / RFU, BET1 / Fold change vs veh, BET1 / RFU, CNOT2 / Fold change vs veh, CNOT2 / RFU, ZNF268 / Fold change vs veh, ZNF268 / Fold change vs veh, ZNF507 / RFU, DGCR2 / Fold change vs veh, DGCR2 / RFU, WDSUB1 / Fold change vs veh, WDSUB1 / Fold change vs veh, HSP90B1 /// MIR3652 / RFU, ADSS / Fold change vs veh, ADSS / RFU, GK / Fold change vs veh, GK / RFU, ZNF148 / Fold change vs veh, ZNF148 / RFU, TAF9 / Fold change vs veh, TAF9 / RFU, SLC1A5 / Fold change vs veh, SLC1A5 / RFU, SLMO2 / Fold change vs veh, SLMO2 / RFU, ABCC4 / Fold change vs veh, ABCC4 / RFU, LOC101060439 /// RAP1B / Fold change vs veh, LOC101060439 /// RAP1B / RFU, RFX7 / Fold change vs veh, RFX7 / RFU, GTPBP10 / Fold change vs veh, GTPBP10 / RFU, CNEP1R1 / Fold change vs veh, CNEP1R1 / RFU, BIVM-ERCC5 /// ERCC5 / Fold change vs veh, BIVM-ERCC5 /// ERCC5 / RFU, ILF3 / Fold change vs veh, ILF3 / RFU 11762660_at / Fold change /veh 11762660_at / RFU VCAN (11757783_s_at) / Fold change /veh VCAN (11757783_s_at) / RFU DDX43 (11728927_at) / Fold change /veh DDX43 (11728927_at) / RFU KRT8 (11758188_x_at) / Fold change /veh KRT8 (11758188_x_at) / RFU NKD1 (11759106_at) / Fold change /veh NKD1 (11759106_at) / RFU SRD5A1 (11742802_a_at) / Fold change /veh SRD5A1 (11742802_a_at) / RFU TPSAB1 /// TPSB2 (11721975_s_at) / Fold change /veh TPSAB1 /// TPSB2 (11721975_s_at) / RFU GSTM3 (11746129_a_at) / Fold change /veh GSTM3 (11746129_a_at) / RFU IL23R (11737362_x_at) / Fold change /veh IL23R (11737362_x_at) / RFU TMEM51 (11727254_a_at) / Fold change /veh TMEM51 (11727254_a_at) / RFU PIWIL2 (11732686_x_at) / Fold change /veh PIWIL2 (11732686_x_at) / RFU ORM1 (11744905_x_at) / Fold change /veh ORM1 (11744905_x_at) / RFU CCDC152 (11743942_at) / Fold change /veh CCDC152 (11743942_at) / RFU ECM1 (11717891_a_at) / Fold change /veh ECM1 (11717891_a_at) / RFU IL23R (11748794_a_at) / Fold change /veh IL23R (11748794_a_at) / RFU TNFAIP8L3 (11732012_x_at) / Fold change /veh TNFAIP8L3 (11732012_x_at) / RFU MBOAT4 (11741988_at) / Fold change /veh MBOAT4 (11741988_at) / RFU 11764193_at / Fold change /veh 11764193_at / RFU TMEM53 (11763286_at) / Fold change /veh TMEM53 (11763286_at) / RFU MAGEB2 (11727129_at) / Fold change /veh MAGEB2 (11727129_at) / RFU TMEM200A (11744735_a_at) / Fold change /veh TMEM200A (11744735_a_at) / RFU CCDC152 (11751479_a_at) / Fold change /veh CCDC152 (11751479_a_at) / RFU FAM211A (11726209_a_at) / Fold change /veh FAM211A (11726209_a_at) / RFU RGS16 (11746705_a_at) / Fold change /veh RGS16 (11746705_a_at) / RFU VCAN (11755009_s_at) / Fold change /veh VCAN (11755009_s_at) / RFU RHOB (11743442_s_at) / Fold change /veh RHOB (11743442_s_at) / RFU RGS16 (11720943_a_at) / Fold change /veh RGS16 (11720943_a_at) / RFU RGS16 (11720944_at) / Fold change /veh RGS16 (11720944_at) / RFU, VPS4B / Fold change vs veh, VPS4B / RFU, CREB1 / Fold change vs veh, CREB1 / RFU, DNAJC13 / Fold change vs veh, DNAJC13 / RFU, GNAQ / Fold change vs veh, GNAQ / RFU, CDK5R1 / Fold change vs veh, CDK5R1 / RFU, ZRANB3 / Fold change vs veh, ZRANB3 / RFU, CUL4A / Fold change vs veh, CUL4A / RFU, CCNY / Fold change vs veh, CCNY / RFU, UFL1 / Fold change vs veh, UFL1 / RFU, COG3 / Fold change vs veh, COG3 / RFU, DIAPH2 / Fold change vs veh, DIAPH2 / RFU, SKA2 / Fold change vs veh, SKA2 / RFU, AFF3 / Fold change vs veh, AFF3 / RFU, LMF1 / Fold change vs veh, LMF1 / RFU, IPO11 / Fold change vs veh, IPO11 / RFU, DFFB / Fold change vs veh, DFFB / RFU, FOXP1 / Fold change vs veh, FOXP1 / RFU, CARD8 / Fold change vs veh, CARD8 / RFU, STRN3 / Fold change vs veh, STRN3 / RFU, ADK / Fold change vs veh, ADK / RFU, RASSF2 / Fold change vs veh, RASSF2 / RFU, WIPF1 / Fold change vs veh, WIPF1 / RFU, LARP1B / Fold change vs veh, LARP1B / RFU, RASA1 / Fold change vs veh, RASA1 / RFU, RB1 / Fold change vs veh, RB1 / RFU, PPFIA1 / Fold change vs veh, PPFIA1 / RFU, MAT2A / Fold change vs veh, MAT2A / RFU, CCT5 / Fold change vs veh, CCT5 / RFU, WDR92 / Fold change vs veh, WDR92 / RFU, CUX1 / Fold change vs veh, CUX1 / RFU, TTC7A / Fold change vs veh, TTC7A / RFU, TMEM135 / Fold change vs veh, TMEM135 / RFU, DEPTOR / Fold change vs veh, DEPTOR / RFU, CPM / Fold change vs veh, CPM / RFU, DNAJB6 / Fold change vs veh, DNAJB6 / RFU, CACNA2D3 / Fold change vs veh, CACNA2D3 / RFU, DTX4 / Fold change vs veh, DTX4 / RFU, TFCP2 / Fold change vs veh, TFCP2 / RFU, GMCL1 /// GMCL1P1 / Fold change vs veh, GMCL1 /// GMCL1P1 / RFU, AEBP2 / Fold change vs veh, AEBP2 / RFU, SNHG1 /// SNORD22 /// SNORD25 /// SNORD26 /// SNORD27 /// SNORD28 /// SNORD29 /// SNORD31 / Fold change vs veh, SNHG1 /// SNORD22 /// SNORD25 /// SNORD26 /// SNORD27 /// SNORD28 /// SNORD29 /// SNORD31 / Fold change (Aza/veh), C12orf56 (ProbeSet 11735607_a_at) / Fold change (ACY-1035/veh), C12orf56 (ProbeSet 11735607_a_at) / Fold change (Aza/veh), FGFR1OP (ProbeSet 11751329_s_at) / Fold change (ACY-1035/veh), FGFR1OP (ProbeSet 11751329_s_at) / Fold change (Aza/veh), VPS36 (ProbeSet 11739960_a_at) / Fold change (ACY-1035/veh), VPS36 (ProbeSet 11739960_a_at) / RFU SYPL1 (11715823_x_at) / Fold change /veh SYPL1 (11715823_x_at) / RFU IGFBP7 (11715501_s_at) / Fold change /veh IGFBP7 (11715501_s_at) / RFU REEP3 (11722064_at) / Fold change /veh REEP3 (11722064_at) / RFU IGLL1 (11728026_x_at) / Fold change /veh IGLL1 (11728026_x_at): dose or concentration left out as unconfirmed
Settings: ProbeSet 11717702_a_at; LIST D

SMILES: Nc1ncn([C@@H]2O[C@H](CO)[C@@H](O)[C@H]2O)c(=O)n1 [azacitidine]
- Fold change vs veh, RB1: 0.73
